For one series, the system named is melan-a cells. As to the kind of experiment: Melanosome autophagy by fluorescence microscopy. The class given is cell-based, murine. As to conditions: α-MSH, rapamycin 0.5 μM 24 hrs, 6-CEPN 10 μM, 8-CEPQ 5 μM 72 hrs. Here is the method:
Melan-a cells (1.5×10^5 cells/well) were seeded on coverslips in 6-well palte. The cells were treated with (1) α-MSH (1 μM) alone for 24 hrs, (2) α-MSH (1 μM) plus rapamycin (0.5 μM) for 24 hrs, (3) α-MSH (1 μM) plus 6-CEPN (10 μM), or (3) α-MSH (1 μM) plus 8-CEPQ (5 μM) for 72 hrs. Culture medium was removed carefully after the cells reached 50%˜70% level of confluence. Cells were stained by microscopy dual detection reagents (autophagy detection kit, Abcam) for 30 mins at 37° C. The stained cells were analyzed by wide-field fluorescence microscopy (60× magnification). Standard FITC filter and DAPI filter were set to image the autophagic signal and the nuclear signal, respectively.

The test system of series [1] is MelanoDerm (Mel-300-A) epidermal equivalents containing melanocytes. As to the kind of experiment: Tissue viability of artificial skin model (CCK-8). The class given is cell-based, human. Particulars: whole treatment period (14 days), rapamycin 2.5 μM, 6-CEPN 10 μM, 8-CEPQ 5 μM. Here is the method: (§1) Epidermal equivalents containing melanocytes (Mel-300-A) were maintained according to the manufacturer's instructions. Mel-300-A tissue was cultured in EPI-100-NMM-113 medium for 14 days. Agents were dissolved in tissue culture medium and changed every other day. The test agents were either (1) rapamycin (2.5 μM), as the positive control in depigmentation, (2) 6-CEPN (10 μM), or (3) 8-CEPQ (5 μM). The concentration of rapamycin used was lower than 6-CEPN and 8-CEPQ, as rapamycin is toxic to cells at higher concentration. Pigmentation of these skin equivalents was compared against treatment of cells with a culture medium only (denoted as “vehicle”). Tissue viability was assessed on day 14 by CCK-8 assay as described in Example 1. On day 14, single tissues were harvested and photographed. The L* parameter was used to evaluate skin lightening or darkening. The lighter the skin, the greater the L* value. ΔL* value was measured by a Chroma Meter CR400 (Konica Minolta) for an evaluation of lightening as a function of time. Three tissues for each treatment were frozen for the Solvable Melanin assay (Bessou-Touya et al., “Chimeric human epidermal reconstructs to study the role of melanocytes and keratinocytes in pigmentation and photoprotection.” Journal of investigative dermatology 111(6):1103-1108 (1998)). Additional tissues were fixed by 10% formanin. For melanin staining in paraffin-embedded tissues, Fontana-Masson silver staining was used as previously detailed (Barbosa et al., “A simple and economical modification of the Masson-Fontana method for staining melanin granules and enterochromaffin cells.” Stain technology 59(4):193-196 (1984)).

Series [2] has the same test system. Description: Solvable Melanin assay in artificial skin model. Type of series: cell-based, human. Particulars: 14 days, rapamycin 2.5 μM, 6-CEPN 10 μM, 8-CEPQ 5 μM. Here is the method:
Epidermal equivalents containing melanocytes (Mel-300-A) were maintained according to the manufacturer's instructions. Mel-300-A tissue was cultured in EPI-100-NMM-113 medium for 14 days. Agents were dissolved in tissue culture medium and changed every other day. The test agents were either (1) rapamycin (2.5 μM), as the positive control in depigmentation, (2) 6-CEPN (10 μM), or (3) 8-CEPQ (5 μM). The concentration of rapamycin used was lower than 6-CEPN and 8-CEPQ, as rapamycin is toxic to cells at higher concentration. Pigmentation of these skin equivalents was compared against treatment of cells with a culture medium only (denoted as “vehicle”). Tissue viability was assessed on day 14 by CCK-8 assay as described in Example 1. On day 14, single tissues were harvested and photographed. The L* parameter was used to evaluate skin lightening or darkening. The lighter the skin, the greater the L* value. ΔL* value was measured by a Chroma Meter CR400 (Konica Minolta) for an evaluation of lightening as a function of time. Three tissues for each treatment were frozen for the Solvable Melanin assay (Bessou-Touya et al., “Chimeric human epidermal reconstructs to study the role of melanocytes and keratinocytes in pigmentation and photoprotection.” Journal of investigative dermatology 111(6):1103-1108 (1998)). Additional tissues were fixed by 10% formanin. […]

For series [3], the system named is microtubule-associated protein light chain 3 (LC-3). As to the kind of experiment: Western blot of LC-3 conversion (autophagy marker). The class given is cell-based, murine. Particulars: melan-a cells, α-MSH and TPA, 72 hrs, 6-CEPN 10 or 20 μM. Here is the method:
Melan-a cells (3×10^5 cells/well) were seeded in a 6-well plate with 4 mL RPMI 1640 medium and 10% FBS. Melan-a cells were then transfected with 10 nM siRNA against autophagy-related protein 7 (ATG-7) or with the same concentration of a control siRNA, using HiPerfect Transfection Reagent. After 72 hrs of incubation, cell culture medium was replaced. Cells were then treated for 72 hrs with (1) α-MSH (1 μM) and TPA; (2) α-MSH (1 μM), TPA, and 6-CEPN (10 μM); or (3) α-MSH (1 μM), TPA, and 6-CEPN (20 μM). Total protein of cells was collected as described in the Western blotting in Example 2. The expressions of autophagy related proteins ATG-7 and microtubule-associated protein light chain 3 (LC-3) were analyzed by Western blot. LC-3 was selected because it was widely used to monitor autophagy. LC-3 can convert from a cytosolic form (i.e., LC-3 I) to a lipidated form (i.e., LC-3 II), the latter of which is attached to the autophagosome membrane (Mizushima N, et al., Autophagy, 3(6): 542-545 (2007)). ATG-7 is a required component in the conjugation of other autophagy-related proteins (e.g., the conjugation between ATG-12 and […]), which ultimately leads to the formation of autophagosome (“Autophagy Signaling Pathway,” Cell Signaling Technology, revised online October 2012).
For orientation: Immunoblotting shows a protein as a band on a membrane.

The target in another series is T1, tyrosinase (Mus musculus, UniProt P11344).
T1 construct: endogenous in cells; host or cells: melan-a cells
T1 sequence (P11344 19-533): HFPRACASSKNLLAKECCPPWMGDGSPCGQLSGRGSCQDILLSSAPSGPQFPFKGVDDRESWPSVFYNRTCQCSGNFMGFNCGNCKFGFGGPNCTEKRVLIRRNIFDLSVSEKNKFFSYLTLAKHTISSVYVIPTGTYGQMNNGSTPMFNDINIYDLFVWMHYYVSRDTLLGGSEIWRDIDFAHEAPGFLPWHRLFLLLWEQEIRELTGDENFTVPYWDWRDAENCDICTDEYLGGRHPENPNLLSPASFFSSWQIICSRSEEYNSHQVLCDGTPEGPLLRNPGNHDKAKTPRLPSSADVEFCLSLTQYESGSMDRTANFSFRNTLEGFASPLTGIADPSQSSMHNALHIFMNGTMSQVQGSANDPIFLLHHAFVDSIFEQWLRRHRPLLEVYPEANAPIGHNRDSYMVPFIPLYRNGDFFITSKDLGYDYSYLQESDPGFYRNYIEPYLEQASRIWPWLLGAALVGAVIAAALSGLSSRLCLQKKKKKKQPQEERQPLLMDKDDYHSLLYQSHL
Description: Cellular tyrosinase activity assay (L-DOPA oxidation in cell lysates). The class given is cell-based, murine. As to conditions: melan-a cells, α-MSH, 72 hrs; 6-CEPN 10 or 20 μM, 8-CEPQ 2.5 or 5 μM. On the procedure:
Cellular tyrosinase activity was determined by measuring the oxidation of L-3,4-dihydroxyphenylalanine (L-DOPA) to dopachrome in cell lysates. Melan-a cells (1.5×10^5 cells/well) were plated in 1 mL of culture medium in a 24-well multidishes for at least 24 hrs prior to use. The cells were treated with α-MSH (1 μM) alone or with α-MSH plus different concentrations of testing agents for 72 hrs. The cells were washed with cold PBS and lysed in 900 μL of PBS with 1% Triton X-100. After being freeze-thawed at −80° C. for 30 min followed by 25° C. for 30 min, 100 μL of 10 mM L-DOPA was then added to each well. Following incubation at 37° C. for 1 hr, the absorbance of the agents was measured at 490 nm using Victor X4 Multilabel Plate Reader (PerkinElmer, Mass., USA).

Series [4] deals with MelanoDerm (Mel-300-A) epidermal equivalents containing melanocytes. Description: Depigmentation in artificial skin model: brightness and L* value. The class given is cell-based, human. As to conditions: 6-CEPN 10 μM, 8-CEPQ 5 μM. Here is the method:
as §1

For `O=C1C[C@@H](c2ccc(O)cc2)Oc2cc(O)c(/C=C/c3ccccc3)c(O)c21` [6-CEPN, 6-C-(E-phenylethenyl)-naringenin], the melanosome autophagy entry in the series with melan-a cells was “induced melanosome autophagy”. The “cytotoxicity (tissue viability)” value in series [1] is reported as “without significant cytotoxicity”. Also, the “amount of melanin in human skin equivalents” value in series [2] is “significantly inhibited the amount of melanin”. Further, the “conversion of LC-3 I to LC-3 II” value in series [3] is listed as “increased the conversion of LC-3 I to LC-3 II”. For the same compound, the tyrosinase activity result at tyrosinase is given as “significant inhibition on tyrosinase activity in a dose-dependent manner”. Also, in series [4] (14 days, rapamycin 2.5 μM), the “brightness of the tissues (visual examination)” value was “increased the brightness of the tissues”. The “L* value vs negative control” value in series [4] (day 14, rapamycin 2.5 μM) was “increased the L* value”.

(Values after patent US10973748B2, “Compositions and methods for lightening skin and reducing hyperpigmentation” (Versitech Limited, priority 2016, dated 2021).)
